Reference: US20250382332A1, “NOVEL ALPHA-FACTOR BASED PEPTIDES WITH ANTIFUNGAL ACTIVITY” (INVAIO SCIENCES, INC., priority 2024, published 2025)
Peptide text beside a SMILES is read from it.

System: Botrytis cinerea (B05.10)
Assay: Resazurin antifungal assay of 180 alpha-factor peptide variants towards Botrytis (Example 2)
Format: cell-based
Settings: % inhibition of fungal growth, Botrytis conidia, resazurin; for Inhibition at 50 μM: peptide 50 μM; for Inhibition at 100 μM: peptide 100 μM; for Inhibition at 10 μM: peptide 10 μM; for Inhibition at 20 μM: peptide 20 μM
Summary of the method: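 Resazurin viability read-out (570/620 nm fluorescence) after a 24 h, 20° C incubation of B05.10 conidia, 5000 per well, with peptide at final 10-100 μM. Growth inhibition (%) was derived by subtracting conidia-only fluorescence; four replicates per treatment.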

CSCC[C@H](NC(=O)[C@@H]1CCCN1C(=O)[C@H](CCC(N)=O)NC(=O)CNC(=O)[C@H](CCCNC(=N)N)NC(=O)[C@H](CCCCN)NC(=O)[C@H](CC(C)C)NC(=O)[C@H](CCC(N)=O)NC(=O)CNC(=O)[C@H](CC(=O)O)NC(=O)[C@H](Cc1c[nH]cn1)NC(=O)[C@@H]1CCCN1)C(=O)N[C@@H](Cc1ccc(O)cc1)C(=O)O [compound 147] (H-PHDGQLKRGQPMY-OH; N-terminus and C-terminus assumed)
Inhibition at 50 μM: <90% | Inhibition at 100 μM: <90%

CSCC[C@H](NC(=O)[C@H](CO)NC(=O)[C@H](C)NC(=O)CNC(=O)[C@@H]1CCCN1C(=O)[C@H](CCCCN)NC(=O)[C@H](CC(C)C)NC(=O)[C@H](CCCNC(=N)N)NC(=O)[C@H](CC(C)C)NC(=O)[C@H](Cc1c[nH]c2ccccc12)NC(=O)[C@H](Cc1c[nH]cn1)NC(=O)[C@@H](N)Cc1c[nH]c2ccccc12)C(=O)N[C@@H](Cc1ccc(O)cc1)C(=O)O [compound 76] (H-WHWLRLKPGASMY-OH; N-terminus and C-terminus assumed)
Inhibition at 10 μM: <90% | Inhibition at 15 μM (peptide 15 μM): <90% | Inhibition at 20 μM: 97.59% | Inhibition at 50 μM: 100% | Inhibition at 100 μM: 100%

CSCC[C@H](NC(=O)[C@@H]1CCCN1C(=O)[C@H](CCC(N)=O)NC(=O)CNC(=O)[C@@H]1CCCN1C(=O)[C@H](CCCCN)NC(=O)[C@H](Cc1ccccc1)NC(=O)[C@@H](NC(=O)[C@H](CC(C)C)NC(=O)[C@H](CC(C)C)NC(=O)[C@H](Cc1c[nH]cn1)NC(=O)[C@@H](N)CCCCN)[C@@H](C)O)C(=O)N[C@@H](Cc1ccc(O)cc1)C(=O)O [compound 95] (H-KHLLTFKPGQPMY-OH; N-terminus and C-terminus assumed)
Inhibition at 10 μM: <90% | Inhibition at 20 μM: <90% | Inhibition at 50 μM: 97.12% | Inhibition at 100 μM: 99.99%

CSCC[C@H](NC(=O)[C@@H]1CCCN1C(=O)[C@H](CCC(N)=O)NC(=O)CNC(=O)[C@H](CC(C)C)NC(=O)[C@H](CCCCN)NC(=O)[C@H](CC(C)C)NC(=O)[C@H](CCC(N)=O)NC(=O)[C@H](CC(C)C)NC(=O)[C@@H](NC(=O)[C@H](CCCCN)NC(=O)[C@@H](N)CCCCN)C(C)C)C(=O)N[C@@H](Cc1ccc(O)cc1)C(=O)O [compound 115] (H-KKVLQLKLGQPMY-OH; N-terminus and C-terminus assumed)
Inhibition at 50 μM: <90% | Inhibition at 100 μM: 99.72%

CSCC[C@H](NC(=O)[C@@H]1CCCN1C(=O)[C@H](CCC(=O)O)NC(=O)CNC(=O)[C@@H]1CCCN1C(=O)[C@H](CCCCN)NC(=O)[C@H](Cc1ccccc1)NC(=O)[C@H](CCC(N)=O)NC(=O)CNC(=O)[C@H](Cc1c[nH]c2ccccc12)NC(=O)[C@H](CCCNC(=N)N)NC(=O)[C@@H](N)Cc1c[nH]c2ccccc12)C(=O)N[C@@H](Cc1ccc(O)cc1)C(=O)O [compound 33] (H-WRWGQFKPGEPMY-OH; N-terminus and C-terminus assumed)
Inhibition at 50 μM: <90% | Inhibition at 100 μM: <90%

CC[C@H](C)[C@H](NC(=O)[C@H](CCCNC(=N)N)NC(=O)[C@H](CC(C)C)NC(=O)[C@H](Cc1c[nH]c2ccccc12)NC(=O)[C@H](CCC(N)=O)NC(=O)[C@@H](N)Cc1c[nH]c2ccccc12)C(=O)N[C@@H](CCCCN)C(=O)N[C@@H](CO)C(=O)NCC(=O)N[C@@H](CCC(N)=O)C(=O)NCC(=O)N[C@@H](CCSC)C(=O)N[C@@H](Cc1ccc(O)cc1)C(=O)O [compound 73] (H-WQWLRIKSGQGMY-OH; N-terminus and C-terminus assumed)
Inhibition at 10 μM: <90% | Inhibition at 20 μM: <90% | Inhibition at 50 μM: 100% | Inhibition at 100 μM: 100%

CSCC[C@H](NC(=O)[C@H](CO)NC(=O)[C@H](CCC(N)=O)NC(=O)CNC(=O)[C@@H]1CCCN1C(=O)[C@H](CCCCN)NC(=O)[C@H](CC(C)C)NC(=O)[C@H](CCCNC(=N)N)NC(=O)[C@H](CC(C)C)NC(=O)[C@H](Cc1ccc(O)cc1)NC(=O)[C@H](Cc1c[nH]cn1)NC(=O)[C@@H](N)Cc1c[nH]c2ccccc12)C(=O)N[C@@H](Cc1ccc(O)cc1)C(=O)O [compound 70] (H-WHYLRLKPGQSMY-OH; N-terminus and C-terminus assumed)
Inhibition at 10 μM: <90% | Inhibition at 20 μM: <90% | Inhibition at 50 μM: 100% | Inhibition at 100 μM: 100%

CSCC[C@H](NC(=O)[C@@H]1CCCN1C(=O)[C@H](CCC(N)=O)NC(=O)CNC(=O)[C@@H]1CCCN1C(=O)[C@H](CCCCN)NC(=O)[C@H](Cc1ccccc1)NC(=O)[C@H](CCCNC(=N)N)NC(=O)[C@H](CC(C)C)NC(=O)[C@@H](NC(=O)[C@H](Cc1c[nH]cn1)NC(=O)[C@@H](N)Cc1c[nH]c2ccccc12)[C@@H](C)O)C(=O)N[C@@H](Cc1ccc(O)cc1)C(=O)O [compound 92] (H-WHTLRFKPGQPMY-OH; N-terminus and C-terminus assumed)
Inhibition at 10 μM: <90% | Inhibition at 20 μM: <90% | Inhibition at 50 μM: 98.44% | Inhibition at 100 μM: 98.95%

CSCC[C@H](NC(=O)[C@@H]1CCCN1C(=O)[C@H](CCC(N)=O)NC(=O)CNC(=O)[C@@H]1CCCN1C(=O)[C@H](CCCCN)NC(=O)[C@H](Cc1ccccc1)NC(=O)[C@H](CCCNC(=N)N)NC(=O)[C@H](CC(C)C)NC(=O)[C@H](CC(C)C)NC(=O)[C@H](Cc1c[nH]cn1)NC(=O)[C@@H](N)Cc1c[nH]c2ccccc12)C(=O)N[C@@H](Cc1ccc(O)cc1)C(=O)O [compound 4] (H-WHLLRFKPGQPMY-OH; N-terminus and C-terminus assumed)
Inhibition at 10 μM: <90% | Inhibition at 20 μM: <90% | Inhibition at 50 μM: 100% | Inhibition at 100 μM: 100%

CSCC[C@H](NC(=O)CNC(=O)[C@H](CCC(N)=O)NC(=O)CNC(=O)[C@@H]1CCCN1C(=O)[C@H](Cc1ccccc1)NC(=O)[C@H](Cc1ccccc1)NC(=O)[C@H](CO)NC(=O)[C@H](CC(C)C)NC(=O)[C@H](Cc1c[nH]c2ccccc12)NC(=O)[C@H](Cc1c[nH]cn1)NC(=O)[C@@H]1CCCN1)C(=O)N[C@@H](Cc1ccc(O)cc1)C(=O)O [compound 34] (H-PHWLSFFPGQGMY-OH; N-terminus and C-terminus assumed)
Inhibition at 50 μM: <90% | Inhibition at 100 μM: <90%

CSCC[C@H](NC(=O)[C@@H]1CCCN1C(=O)[C@H](CCC(N)=O)NC(=O)CNC(=O)[C@@H]1CCCN1C(=O)[C@H](CCCCN)NC(=O)[C@H](CC(C)C)NC(=O)[C@H](CC(N)=O)NC(=O)[C@H](CC(C)C)NC(=O)[C@H](CC(C)C)NC(=O)[C@H](Cc1c[nH]cn1)NC(=O)[C@@H](N)CCCCN)C(=O)N[C@@H](Cc1ccc(O)cc1)C(=O)O [compound 113] (H-KHLLNLKPGQPMY-OH; N-terminus and C-terminus assumed)
Inhibition at 50 μM: <90% | Inhibition at 100 μM: 98.44%

CC[C@H](C)[C@H](NC(=O)[C@H](CCC(N)=O)NC(=O)[C@H](CC(C)C)NC(=O)[C@H](Cc1c[nH]c2ccccc12)NC(=O)[C@H](Cc1c[nH]cn1)NC(=O)[C@@H](N)CCCCN)C(=O)N[C@@H](CCCCN)C(=O)N[C@@H](Cc1ccc(O)cc1)C(=O)NCC(=O)N[C@@H](CCC(=O)O)C(=O)N1CCC[C@H]1C(=O)N[C@@H](CCSC)C(=O)N[C@@H](Cc1ccc(O)cc1)C(=O)O [compound 7] (H-KHWLQIKYGEPMY-OH; N-terminus and C-terminus assumed)
Inhibition at 10 μM: <90% | Inhibition at 20 μM: <90% | Inhibition at 50 μM: 100% | Inhibition at 100 μM: 100%
